In US20090062124A1, “Ethephon-induced enhancement of seedling development” (priority 2007, published 2009):
Where “and” joins values, the source holds several entries; their conditions need not be identical. Equal entries are not always repeated.

Tests used:
Type in all cases: in vivo
[1] = system: Soybean seedlings (46G02 RR/STS, Kelly Green Seeds); assay: Soybean seedlings sprayed with ethephon in greenhouse conditions
Protocol: Soybean seedlings (46G02 RR/STS, Kelly Green Seeds) at the cotyledon—second leaf stage were treated with ethephon in greenhouse conditions to evaluate the effects of ethephon application. All plants in the treatment groups received a single application by spraying of various concentrations of aqueous solutions of ethephon (0, 1.0, 3.8, 7.6, and 15.2 mM ethephon) to plants at the cotyledon stage. Root development, measured as tap root and lateral root lengths, and seedling growth were determined 7 days after spraying.

[2] = system: Cotton plants; assay: Cotton plants sprayed with ethephon at the cotyledon stage in greenhouse conditions
Protocol: (§1) Cotton plants were treated with ethephon in greenhouse conditions to evaluate the effects of ethephon application. All plants in the treatment groups received a single application by spraying of various concentrations of aqueous solutions of ethephon (0, 1.0, 3.8, 7.6, and 15.2 mM ethephon) to plants at the cotyledon stage. Lateral root production, leaf numbers and leaf size, and number of cotton squares were determined 7 to 80 days after spraying. To evaluate the effect on as a seed treatment, cotton seeds were soaked in aqueous ethephon solutions (10, 20, 30, and 50 mM) for 10 seconds prior to planting.

[3] = system: dryland field grown cotton; assay: Dryland field grown cotton sprayed with ethephon, seed cotton yield; settings: 3.8 mM single spray at cotyledon, two leaf or four leaf stage; vs non-treated controls; FIG. 1
Protocol: The effects of ethephon treatment on dryland field grown cotton were measured. All plants in the treatment groups received a single application by spraying of 3.8 mM ethephon at either the cotyledon stage, two leaf stage, and four leaf stage. Cotton yields, measured as seed cotton weight, were measured at the end of the season following harvest.

[4] = system: Corn seedlings; assay: Corn seedlings sprayed with ethephon in greenhouse conditions
Protocol: (§2) The effects of ethephon treatment on the root development of corn and wheat was evaluated. Corn and wheat seedlings at the two to three leaf stage were treated with ethephon in greenhouse conditions. All plants in the treatment groups received a single application by spraying of various concentrations of aqueous solutions of ethephon (0, 1.0, 3.8, 7.6, 11.4, 15.2 and 30.4 mM ethephon for wheat, and 0, 3.8, 5.7, 7.6, 11.4, 15.2, 30.4, 45.6, and […] ethephon for corn) to plants at the cotyledon stage. Root development, measured as tap root and lateral root lengths for corn and tap root length for wheat, and shoot length and root hair production were also determined for wheat, seven days after spraying. To evaluate the effect on as a seed treatment, wheat and corn seeds were soaked in aqueous ethephon solutions (90 mM) for 10 seconds prior to planting.

[5] = system: wheat seedlings; assay: Wheat seedlings sprayed with ethephon in greenhouse conditions; settings: between 1 mM and 7.6 mM ethephon, seven days after spraying, vs untreated controls
Protocol: as §2

[6] = system: cotton seeds; assay: Cotton seeds soaked in aqueous ethephon solutions prior to planting; settings: seeds soaked 10 seconds; 10, 20, 30 and 50 mM tested
Protocol: as §1

[7] = 7 days after spraying, vs untreated controls
[8] = spray, 0, 1.0, 3.8, 7.6 and 15.2 mM tested
[9] = sprayed cotton, 7 to 80 days after spraying
[10] = between 3.8 and 11.4 mM ethephon, seven days after spraying, vs untreated controls

Question: For `O=P(O)(O)CCCl` [Ethephon, (2-chloroethyl)phosphonic acid], which seedling growth [1, 7] is on record?
Answer: Its seedling growth is “statistically significant increases”.

Question: And the “taproot and lateral root development” value [1, 7]?
Answer: The value was “statistically significant increases”.

Question: What about the “ethephon concentration giving optimum results” value [1, 8] of the same molecule?
Answer: Its value is 3.8 mM.

Question: And the “increase in fruiting sites (cotton squares)” value ([2]; 3.8 mM ethephon vs control)?
Answer: Its value is 30%.

Question: And the “Average # of squares” value ([2]; 3.8 mM ethephon, single spray at cotyledon stage, greenhouse, average of 3 reps (control 42))?
Answer: The value was 55.

Question: What about the Number of squares ([2]; 3.8 mM ethephon, single spray at cotyledon stage, greenhouse, per rep) of the same molecule?
Answer: Its Number of squares is 58 and 54 and 53.

Question: And the “ethephon concentration giving optimum results” value [2, 8]?
Answer: Its value is 3.8 mM.

Question: What about the “fruiting (number of cotton squares)” value [2, 9] of the same molecule?
Answer: Its value is “increased fruiting”.

Question: And the lateral root development [2, 9]?
Answer: Its lateral root development is “statistically significant increases”.

Question: And the leaf size [2, 9]?
Answer: The leaf size was “without a decrease in leaf size”.

Question: What about the “rate of leaf production (measured as numbers of leaves)” value [2, 9] of the same molecule?
Answer: The value was “statistically significant increases”.

Question: What about the “cotton yields (seed cotton weight)” value [3] of the same molecule?
Answer: The value was “significantly increased yields”.

Question: What about the lateral root length [4, 10] of the same molecule?
Answer: Its lateral root length is “statistically significant increases”.

Question: And the taproot length [4, 10]?
Answer: Its taproot length is “statistically significant increases”.

Question: What about the “ethephon concentration giving optimum results” value ([4]; spray, FIG. 4) of the same molecule?
Answer: The value was 7.6 mM.

Question: What about the shoot length [5] of the same molecule?
Answer: The shoot length was “statistically significant increases”.

Question: What about the taproot length [5] of the same molecule?
Answer: Its taproot length is “statistically significant increases”.

Question: What about the “optimum seed soak concentration” value [6] of the same molecule?
Answer: Its value is 30 mM.
